The target in this assay is SMARCA2 (Homo sapiens, UniProt P51531). The assay is described as follows: MSD SMARCA2 degradation in A549 cell line. Particulars: 24 h; for Dmax: A549, A549 cells; for DC50: A549 cells, read-out: SMARCA2 MSD A549 degradation 24 h: Average external-Abs DC50. Format: cell-based. The protocol:
Cells were seeded into 96-well plates (A549 cells: 2×10^4 cells/well/100 ul media) abd incubated overnight. The next day, 200 nl compound were added into the intermediate plate with Echo (Labcyte 550) from source plate containing a 3-fold serial dilution from top concentration of 1 mM. The culture medium was changed with 80 ul of fresh medium and 80 ul of 2× compound solution was added into the well to make a final concentration of 1000 nM, 333.3 nM, 111.1 nM, 37.04 nM, 12.35 nM, 4.115 nM, 1.372 nM, 0.457 nM, 0.152 nM and 0 nM (DMSO). The wells were mixed and then incubated for 24 hours. The media was aspirated from the cultures and 60 ul pre-chilled PIPA lysis buffer (Boston BioProducts BP-115D) with protease/phosphatase inhibitor (Roche 05892791001/Roche 04906837001) was added into the well to lyze the cells for 20 minutes at 4° C. The MSD plate (L15XA) was coated with 40 ul cell lysate and incubated at 4° C. overnight. The next day, the plate was washed three times with TBST (CST #9997S), 150 ul/well. The MSD plates was blocked with 150 ul blocking buffer per well and shaked for 1 hr at RT, 600 rpm. The blocking buffer was 3% Blocker A (MSD, R93BA-4) in TBST. The MSD plate was washed three times with 150 ul/well of TBST and 25 ul/well of detection antibody (Rabbit anti-SMARCA2/BRM antibody, 100 μg/ml, ab223735) was added at final concentration of 1 ug/ml diluted in 1% Blocking buffer and shaken for 1 hour at RT, 600 rpm. The MSD plate was washed three times with 150 ul/well of TBST and 25 ul/well of SULFO-TAG anti-rabbit antibody (MSD, R32AB-1) was added at final concentration of 1 ug/ml diluted in 1% Blocking buffer and shaken for 1 hour at RT, 600 rpm. The MSD plate was washed three times with 150 ul/well of TBST and 150 ul/well of 2×MSD reading buffer diluted from 4× (MSD, R92TC-2) with water was added. Lastly, the MSD instrument was read.
The letter codes for the percentage of SMARCA2 degradation after 24 hours (Dmax %) include: A (>90% degradation), B (>70-90% degradation), C (50-70% degradation), and D (<50% degradation).

The structures appear in SMILES notation. A value given as a limit tells only on which side of the number the result lay.

SMARCA2, sequence (P51531 whole entry): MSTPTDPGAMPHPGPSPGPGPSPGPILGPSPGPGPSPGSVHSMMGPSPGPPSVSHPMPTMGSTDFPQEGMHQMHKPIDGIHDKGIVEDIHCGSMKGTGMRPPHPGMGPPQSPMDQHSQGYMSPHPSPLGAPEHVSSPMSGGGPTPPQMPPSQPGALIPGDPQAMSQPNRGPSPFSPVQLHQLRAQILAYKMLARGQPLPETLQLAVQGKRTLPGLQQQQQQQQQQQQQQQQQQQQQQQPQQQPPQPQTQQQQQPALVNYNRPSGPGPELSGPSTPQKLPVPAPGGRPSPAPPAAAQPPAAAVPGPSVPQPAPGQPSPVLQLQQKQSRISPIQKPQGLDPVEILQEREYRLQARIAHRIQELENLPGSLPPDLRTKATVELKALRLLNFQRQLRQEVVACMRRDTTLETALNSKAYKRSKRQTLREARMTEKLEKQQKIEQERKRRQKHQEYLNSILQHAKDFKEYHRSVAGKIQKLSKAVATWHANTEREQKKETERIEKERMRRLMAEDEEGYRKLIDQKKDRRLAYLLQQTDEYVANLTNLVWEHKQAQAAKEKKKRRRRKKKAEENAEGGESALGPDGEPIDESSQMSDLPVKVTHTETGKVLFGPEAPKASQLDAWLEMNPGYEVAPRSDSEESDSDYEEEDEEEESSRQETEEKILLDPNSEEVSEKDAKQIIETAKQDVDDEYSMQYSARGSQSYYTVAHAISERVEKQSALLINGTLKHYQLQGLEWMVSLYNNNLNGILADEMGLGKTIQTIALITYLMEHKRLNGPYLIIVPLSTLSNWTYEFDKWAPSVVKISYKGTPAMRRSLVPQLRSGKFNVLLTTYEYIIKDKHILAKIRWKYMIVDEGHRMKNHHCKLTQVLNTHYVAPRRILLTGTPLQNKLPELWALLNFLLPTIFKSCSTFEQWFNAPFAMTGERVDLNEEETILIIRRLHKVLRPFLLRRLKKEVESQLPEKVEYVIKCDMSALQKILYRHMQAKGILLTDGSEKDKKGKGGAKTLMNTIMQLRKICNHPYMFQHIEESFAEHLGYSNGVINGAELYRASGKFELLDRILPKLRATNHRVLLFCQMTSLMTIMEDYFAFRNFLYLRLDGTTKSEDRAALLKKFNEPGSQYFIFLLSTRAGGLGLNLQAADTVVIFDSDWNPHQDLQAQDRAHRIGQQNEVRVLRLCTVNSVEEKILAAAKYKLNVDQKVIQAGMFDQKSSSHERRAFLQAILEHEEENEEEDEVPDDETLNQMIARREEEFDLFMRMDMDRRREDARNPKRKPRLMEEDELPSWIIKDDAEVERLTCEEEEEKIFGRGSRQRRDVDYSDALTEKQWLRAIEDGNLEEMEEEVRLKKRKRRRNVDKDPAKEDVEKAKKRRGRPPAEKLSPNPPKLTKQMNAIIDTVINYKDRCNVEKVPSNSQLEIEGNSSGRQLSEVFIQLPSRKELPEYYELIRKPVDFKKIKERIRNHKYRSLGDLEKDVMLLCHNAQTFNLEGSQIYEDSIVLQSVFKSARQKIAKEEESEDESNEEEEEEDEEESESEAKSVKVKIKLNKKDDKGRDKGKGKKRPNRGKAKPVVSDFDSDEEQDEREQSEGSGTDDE

Turning to `Nc1nnc(-c2ccccc2O)cc1N1CC2CCC(C1)N2c1ncc(C2CCN(CCCCCCCCCCOc3ccc(Oc4ccc(N(Cc5ccccc5)C(=O)CCl)cc4)cc3)CC2)cn1` [I-533, N-(4-(4-((10-(4-(2-(3-(3-amino-6-(2-hydroxyphenyl)pyridazin-4-yl)-3,8-diazabicyclo[3.2.1]octan-8-yl)pyrimidin-5-yl)piperidin-1-yl)decyl)oxy)phenoxy)phenyl)-N-benzyl-2-chloroacetamide], the greatest degradation seen (Dmax) (usually the greatest extent of degradation seen) is less than 50% and the DC50 (usually the concentration giving 50% degradation) was greater than 1000 nM.

Take `Cc1ncsc1-c1ccc(CNC(=O)[C@@H]2C[C@@H](O)CN2C(=O)[C@@H](NC(=O)[C@H]2CC[C@H](N3CC(c4cnc(N5C6CCC5CN(c5cc(-c7ccccc7O)nnc5N)C6)nc4)C3)CC2)C(C)(C)C)cc1` [I-393]: the Dmax is greater than 90% and the DC50 was in the range of 100 to 500 nM.

For `Cc1ncsc1-c1ccc(CNC(=O)[C@@H]2C[C@@H](O)CN2C(=O)[C@@H](NC(=O)CNCc2cccc(C#Cc3cc(NC(=O)Nc4cc(F)ncc4CO)ccn3)c2)C(C)(C)C)cc1` [I-487, (2S,4R)-1-((S)-2-(2-((3-((4-(3-(2-fluoro-5-(hydroxymethyl)pyridin-4-yl)ureido)pyridin-2-yl)ethynyl)benzyl)amino)acetamido)-3,3-dimethylbutanoyl)-4-hydroxy-N-(4-(4-methylthiazol-5-yl)benzyl)pyrrolidine-2-carboxamide], the Dmax was less than 50% and the DC50 is greater than 1000 nM.

As to `Cc1ncsc1-c1ccc(CNC(=O)[C@@H]2C[C@@H](O)CN2C(=O)[C@@H](NC(=O)CCCN2CCN(Cc3ccc(-c4cc(-c5ccccc5O)nnc4N)cc3)CC2)C(C)(C)C)cc1` [I-475, (2S,4R)-1-((S)-2-(4-(4-(4-(3-amino-6-(2-hydroxyphenyl)pyridazin-4-yl)benzyl)piperazin-1-yl)butanamido)-3,3-dimethylbutanoyl)-4-hydroxy-N-(4-(4-methylthiazol-5-yl)benzyl)pyrrolidine-2-carboxamide], the greatest degradation seen (Dmax) was less than 50% and the half-maximal degradation concentration (DC50) was greater than 1000 nM.

With `CN(Cc1cccc(C#Cc2cc(NC(=O)Nc3cc(F)ncc3CO)ccn2)c1)CC1CCN(Cc2cccc3c2n(C)c(=O)n3C2CCC(=O)NC2=O)CC1` (stereo not shown) [I-316], the maximal degradation (Dmax) was less than 50% and the DC50 is greater than 1000 nM.

In the case of `CC(C)(C)[C@H](NC(=O)[C@H]1CC2(C1)C[C@H](N1CCC(c3cnc(N4C5CCC4CN(c4cc(-c6ccccc6O)nnc4N)C5)nc3)CC1)C2)C(=O)N1C[C@H](O)C[C@H]1C(=O)NOc1ccc(-c2ccccc2F)cc1` (stereo partly drawn) [I-538, (2S,4R)-1-[(2S)-2-[[2-[4-[2-[3-[3-amino-6-(2-hydroxyphenyl)pyridazin-4-yl]-3,8-diazabicyclo[3.2.1]octan-8-yl]pyrimidin-5-yl]-1-piperidyl]spiro[3.3]heptane-6-carbonyl]amino]-3,3-dimethyl-butanoyl]-N-[4-(2-fluorophenyl)phenoxy]-4-hydroxy-pyrrolidine-2-carboxamide], the DC50 is greater than 1000 nM.

For the molecule `Cc1ncsc1-c1ccc(CNC(=O)[C@@H]2C[C@@H](O)CN2C(=O)[C@@H](NC(=O)[C@H]2CC[C@@H](Cc3cnc(N4C5CCC4CN(c4cc(-c6ccccc6O)nnc4N)C5)nc3)CC2)C(C)(C)C)cc1` [I-367], the Dmax is greater than 90% and the DC50 was less than 100 nM.

As for `Cc1ncsc1-c1ccc(CNC(=O)[C@@H]2C[C@@H](O)CN2C(=O)[C@@H](NC(=O)CCCCCNCc2ccc(C#Cc3cc(NC(=O)Nc4cc(F)ncc4CO)ccn3)cc2)C(C)(C)C)cc1` [I-493], the Dmax was less than 50% and the DC50 was greater than 1000 nM.

On to `Cc1ncsc1-c1ccc(CNC(=O)[C@@H]2C[C@@H](O)CN2C(=O)[C@@H](NC(=O)[C@H]2CC[C@H](N3CCC(CN4CCC(Cn5cc(-c6cc(-c7ccccc7O)nnc6N)cn5)CC4)CC3)CC2)C(C)(C)C)cc1` [I-397], for which the Dmax was less than 50% and the DC50 was greater than 1000 nM.

Turning to `Cn1c(=O)n(C2CCC(=O)NC2=O)c2ccc(CCCOCCCCN3CCN(Cc4cccc(C#Cc5cc(NC(=O)Nc6cc(F)ncc6CO)ccn5)c4)CC3)cc21` (stereo not shown) [I-314], the Dmax was less than 50% and the half-maximal degradation concentration (DC50) was greater than 1000 nM.

Consider `Cc1ncsc1-c1ccc(CNC(=O)[C@@H]2C[C@@H](O)CN2C(=O)[C@@H](NC(=O)CCN2CCC(n3cc(-c4cc(-c5ccccc5O)nnc4N)cn3)CC2)C(C)(C)C)cc1` [I-458], for which the Dmax is less than 50% and the DC50 is greater than 1000 nM.

Consider `Cn1c(=O)n(C2CCC(=O)NC2=O)c2ccc(CCCCCCCCCNCc3ccc(C#Cc4cc(NC(=O)Nc5cc(F)ncc5CO)ccn4)cc3)cc21` (stereo not shown) [I-303], for which the greatest degradation seen (Dmax) was less than 50% and the half-maximal degradation concentration (DC50) was greater than 1000 nM.

With `Cc1ncsc1-c1ccc(CNC(=O)[C@@H]2C[C@@H](O)CN2C(=O)[C@@H](NC(=O)[C@H]2CC3(C[C@H](CN(C)Cc4cnc(N5C6CCC5CN(c5cc(-c7ccccc7O)nnc5N)C6)nc4)C3)C2)C(C)(C)C)cc1` (stereo partly shown) [I-417], the maximal degradation (Dmax) was greater than 90% and the DC50 fell in the range of 100 to 500 nM.

Turning to `Cc1ncsc1-c1ccc(CNC(=O)[C@@H]2C[C@@H](O)CN2C(=O)[C@@H](NC(=O)[C@@H]2CC3CCC2C[C@@H]3c2cnc(N3C4CCC3CN(c3cc(-c5ccccc5O)nnc3N)C4)nc2)C(C)(C)C)cc1` (stereo partly shown) [I-410], the Dmax was greater than 90% and the DC50 lay within 100 to 500 nM.

Take `O=C1CCC(n2c(=O)oc3c(CCCOC4CCN(Cc5ccc(C#Cc6cc(NC(=O)Nc7cc(F)ncc7CO)ccn6)cc5)CC4)cccc32)C(=O)N1` (stereo not shown) [I-309]: the maximal degradation (Dmax) was less than 50% and the DC50 is greater than 1000 nM.

With `Cc1ncsc1-c1ccc(CNC(=O)[C@@H]2C[C@@H](O)CN2C(=O)[C@@H](NC(=O)[C@H]2CC3(C[C@H](CN4CCC(n5cc(-c6cc(-c7ccccc7O)nnc6N)cn5)CC4)C3)C2)C(C)(C)C)cc1` (stereo partly shown) [I-432], the maximal degradation (Dmax) was greater than 90% and the 50% degradation concentration (DC50) fell in the range of 100 to 500 nM.

Turning to `Cc1ncsc1-c1ccc(CNC(=O)[C@@H]2C[C@@H](O)CN2C(=O)[C@@H](NC(=O)[C@H]2CC3CCC2C[C@@H]3c2cnc(N3C4CCC3CN(c3cc(-c5ccccc5O)nnc3N)C4)nc2)C(C)(C)C)cc1` (stereo partly shown) [I-441], the Dmax was greater than 90% and the DC50 lay in the range of 100 to 500 nM.

As for `Cc1ncsc1-c1ccc(CNC(=O)[C@@H]2C[C@@H](O)CN2C(=O)[C@@H](NC(=O)[C@H]2C[C@]3(C[C@H](CN(C)Cc4cnc(N5C6CCC5CN(c5cc(-c7ccccc7O)nnc5N)C6)nc4)C3)C2)C(C)(C)C)cc1` (stereo partly shown) [I-443], the DC50 is 100 to 500 nM.

As to `Cc1ncsc1-c1ccc(CNC(=O)[C@@H]2C[C@@H](O)CN2C(=O)[C@@H](NC(=O)[C@H]2CC[C@H](C(=O)N(C)Cc3cnc(N4C5CCC4CN(c4cc(-c6ccccc6O)nnc4N)C5)nc3)CC2)C(C)(C)C)cc1` [I-396], the Dmax was 70 to 90% and the DC50 was in the range of 100 to 500 nM.

`Cc1ncsc1-c1ccc(CNC(=O)[C@@H]2C[C@@H](O)CN2C(=O)[C@@H](NC(=O)CCCN(C)CC#Cc2cnc(N3C4CCC3CN(c3cc(-c5ccccc5O)nnc3N)C4)nc2)C(C)(C)C)cc1` [I-497]: the Dmax was less than 50% and the DC50 is greater than 1000 nM.

As for `Cn1c(=O)n(C2CCC(=O)NC2=O)c2cccc(CCCOC3CCN(Cc4ccc(C#Cc5cc(NC(=O)Nc6cc(F)ncc6CO)ccn5)cc4)CC3)c21` (stereo not shown) [I-307], the Dmax was less than 50% and the half-maximal degradation concentration (DC50) is greater than 1000 nM.

Take `CN(Cc1ccc(C#Cc2cc(NC(=O)Nc3cc(F)ncc3CO)ccn2)cc1)CC1CCN(Cc2cccc3c2n(C)c(=O)n3C2CCC(=O)NC2=O)CC1` (stereo not shown) [I-308]: the Dmax is less than 50% and the DC50 was greater than 1000 nM.

Regarding `COCC(=O)N1CCCc2cc(OCC(=O)NCCCN3CCC(c4cnc(N5C6CCC5CN(c5cc(-c7ccccc7O)nnc5N)C6)nc4)CC3)ccc21` [I-526], the Dmax is less than 50% and the DC50 is greater than 1000 nM.

For the molecule `CN(Cc1ccc(C#Cc2cc(NC(=O)Nc3cc(F)ncc3CO)ccn2)cc1)C1CCN(Cc2cccc3c2n(C)c(=O)n3C2CCC(=O)NC2=O)CC1` (stereo not shown) [I-310], the greatest degradation seen (Dmax) is less than 50% and the DC50 was greater than 1000 nM.

With `Cc1ncsc1-c1ccc(CNC(=O)[C@@H]2C[C@@H](O)CN2C(=O)[C@@H](NC(=O)[C@H]2CC[C@@H](c3cnc(N4C5CCC4CN(c4cc(-c6ccccc6O)nnc4N)C5)nc3C)CC2)C(C)(C)C)cc1` [I-440], the maximal degradation (Dmax) is greater than 90% and the 50% degradation concentration (DC50) fell in the range of 100 to 500 nM.

Turning to `Cc1ncsc1-c1ccc(CNC(=O)[C@@H]2C[C@@H](O)CN2C(=O)[C@@H](NC(=O)CCCNCc2cccc(C#Cc3cc(NC(=O)Nc4cc(F)ncc4CO)ccn3)c2)C(C)(C)C)cc1` [I-488], the maximal degradation (Dmax) was less than 50% and the DC50 is greater than 1000 nM.

`Nc1nnc(-c2ccccc2O)cc1N1CC2CCC(C1)N2c1ncc(C2CCN(CCCCNC(=O)COc3ccc4c(c3)CCCN4C(=O)CCl)CC2)cn1` [I-528]: the Dmax was less than 50% and the 50% degradation concentration (DC50) was greater than 1000 nM.

Source of the values: patent publication US12624044B2, “SMARCA degraders and uses thereof” (Kymera Therapeutics, Inc., priority 2019, dated 2026).
